From article PMC5761851, “Application of a phenotypic drug discovery strategy to identify biological and chemical starting points for inhibition of TSLP production in lung epithelial cells” (PLoS ONE, 2018)

Experiments:
Test in all cases: kinase selectivity panel
Type in all cases: biochemical
KDR = biological target: T1, KDR (Homo sapiens, UniProt P35968); conditions: read-out: percentage of control activity (POC), KDR
T1 construct: purchased Eurofins Pharma Discovery Services (KinaseProfiler; Cerep BioPrint panel)
T1 sequence (P35968 20-1356): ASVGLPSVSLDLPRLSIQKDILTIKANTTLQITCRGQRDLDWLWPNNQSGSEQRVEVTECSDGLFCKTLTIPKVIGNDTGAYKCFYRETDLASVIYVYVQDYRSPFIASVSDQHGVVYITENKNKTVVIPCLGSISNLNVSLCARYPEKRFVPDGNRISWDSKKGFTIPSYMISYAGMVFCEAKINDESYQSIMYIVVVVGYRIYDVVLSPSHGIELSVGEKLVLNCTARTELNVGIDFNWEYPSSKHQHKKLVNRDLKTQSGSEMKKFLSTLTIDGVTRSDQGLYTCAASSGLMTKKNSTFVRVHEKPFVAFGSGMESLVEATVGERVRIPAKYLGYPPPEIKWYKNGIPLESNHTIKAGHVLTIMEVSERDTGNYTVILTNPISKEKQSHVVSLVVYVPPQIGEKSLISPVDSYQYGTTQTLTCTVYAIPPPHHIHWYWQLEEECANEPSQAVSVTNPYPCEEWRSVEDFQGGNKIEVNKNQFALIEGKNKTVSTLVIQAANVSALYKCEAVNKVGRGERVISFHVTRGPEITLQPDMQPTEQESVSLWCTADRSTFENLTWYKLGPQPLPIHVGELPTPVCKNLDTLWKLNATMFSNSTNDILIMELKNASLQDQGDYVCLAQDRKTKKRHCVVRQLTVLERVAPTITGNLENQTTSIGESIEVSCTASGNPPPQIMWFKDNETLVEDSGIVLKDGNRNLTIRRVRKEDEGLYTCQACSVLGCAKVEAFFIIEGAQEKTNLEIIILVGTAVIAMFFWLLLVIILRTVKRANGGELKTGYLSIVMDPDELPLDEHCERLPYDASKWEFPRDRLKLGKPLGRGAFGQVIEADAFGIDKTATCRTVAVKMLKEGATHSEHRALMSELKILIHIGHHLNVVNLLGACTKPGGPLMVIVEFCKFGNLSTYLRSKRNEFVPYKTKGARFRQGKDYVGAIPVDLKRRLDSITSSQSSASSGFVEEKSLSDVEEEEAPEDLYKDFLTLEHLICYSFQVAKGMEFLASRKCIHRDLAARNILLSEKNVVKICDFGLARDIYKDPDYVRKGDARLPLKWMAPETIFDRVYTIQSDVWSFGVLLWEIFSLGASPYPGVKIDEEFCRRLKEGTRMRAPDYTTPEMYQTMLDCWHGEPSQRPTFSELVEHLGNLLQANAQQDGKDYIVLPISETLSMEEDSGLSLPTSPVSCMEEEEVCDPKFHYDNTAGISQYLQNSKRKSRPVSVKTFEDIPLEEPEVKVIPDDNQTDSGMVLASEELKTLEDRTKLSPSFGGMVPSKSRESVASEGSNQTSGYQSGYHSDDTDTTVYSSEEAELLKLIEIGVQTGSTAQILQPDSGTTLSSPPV
Protocol: (§1) Kinase selectivity was evaluated at Eurofins Pharma Discovery Services using a selection of 125 representative kinases tested at a concentration of 10 μM in duplicate (S3 Table). IC50 values for selected activities were further characterized at 9 duplicate concentrations. DNA-PK activity was determined at the SelectScreen® Biochemical kinase Profiling Service of Thermo Fisher Scientific.

SAPK3 = biological target: T2, SAPK3 (Homo sapiens, UniProt P53778); conditions: read-out: percentage of control activity (POC), SAPK3
T2 construct: purchased Eurofins Pharma Discovery Services (KinaseProfiler; Cerep BioPrint panel)
T2 sequence (P53778 1-367): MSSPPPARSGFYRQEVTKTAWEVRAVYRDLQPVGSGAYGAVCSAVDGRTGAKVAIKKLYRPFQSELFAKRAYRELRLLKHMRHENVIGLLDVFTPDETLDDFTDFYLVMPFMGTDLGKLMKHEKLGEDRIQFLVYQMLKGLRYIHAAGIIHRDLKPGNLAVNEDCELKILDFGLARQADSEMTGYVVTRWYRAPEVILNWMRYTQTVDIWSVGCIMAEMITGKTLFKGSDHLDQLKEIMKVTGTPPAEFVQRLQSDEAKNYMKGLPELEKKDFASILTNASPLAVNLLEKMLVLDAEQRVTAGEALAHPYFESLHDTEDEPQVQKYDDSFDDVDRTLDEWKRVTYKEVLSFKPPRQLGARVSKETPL
Protocol: as §1

CDK6/cyclinD3 = biological target: T3, CDK6/cyclinD3 (Homo sapiens, UniProt Q00534); conditions: read-out: percentage of control activity (POC), CDK6/cyclinD3
T3 construct: purchased Eurofins Pharma Discovery Services (KinaseProfiler; Cerep BioPrint panel)
Protocol: as §1

IKKβ = biological target: T4, IKKβ (Homo sapiens, UniProt O14920); conditions: read-out: percentage of control activity (POC), IKKβ
T4 construct: purchased Eurofins Pharma Discovery Services (KinaseProfiler; Cerep BioPrint panel)
T4 sequence (O14920 1-756): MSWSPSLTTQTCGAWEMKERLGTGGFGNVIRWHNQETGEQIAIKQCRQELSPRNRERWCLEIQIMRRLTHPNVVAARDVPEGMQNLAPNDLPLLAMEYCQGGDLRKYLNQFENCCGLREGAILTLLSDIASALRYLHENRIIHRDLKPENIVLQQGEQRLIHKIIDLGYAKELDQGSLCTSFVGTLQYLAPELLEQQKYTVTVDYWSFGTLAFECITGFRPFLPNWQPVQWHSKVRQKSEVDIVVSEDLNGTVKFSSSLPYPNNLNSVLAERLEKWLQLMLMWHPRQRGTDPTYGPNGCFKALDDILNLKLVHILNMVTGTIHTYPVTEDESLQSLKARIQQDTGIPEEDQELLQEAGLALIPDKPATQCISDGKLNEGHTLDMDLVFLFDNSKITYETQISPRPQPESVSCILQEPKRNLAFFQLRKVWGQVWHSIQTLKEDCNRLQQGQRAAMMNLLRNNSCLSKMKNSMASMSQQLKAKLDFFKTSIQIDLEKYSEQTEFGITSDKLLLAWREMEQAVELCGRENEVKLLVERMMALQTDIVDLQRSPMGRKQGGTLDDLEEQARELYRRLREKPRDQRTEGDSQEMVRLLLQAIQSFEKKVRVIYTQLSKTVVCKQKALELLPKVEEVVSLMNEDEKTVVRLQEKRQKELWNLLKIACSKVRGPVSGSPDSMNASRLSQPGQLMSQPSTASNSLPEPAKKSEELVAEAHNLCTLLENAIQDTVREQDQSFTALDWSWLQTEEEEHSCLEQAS
Protocol: as §1

PTK5 = biological target: T5, PTK5 (Homo sapiens, UniProt P42685); conditions: for remaining activity at 10 µM: read-out: percentage of control activity (POC), PTK5
T5 construct: purchased Eurofins Pharma Discovery Services (KinaseProfiler; Cerep BioPrint panel)
T5 sequence (P42685 whole entry): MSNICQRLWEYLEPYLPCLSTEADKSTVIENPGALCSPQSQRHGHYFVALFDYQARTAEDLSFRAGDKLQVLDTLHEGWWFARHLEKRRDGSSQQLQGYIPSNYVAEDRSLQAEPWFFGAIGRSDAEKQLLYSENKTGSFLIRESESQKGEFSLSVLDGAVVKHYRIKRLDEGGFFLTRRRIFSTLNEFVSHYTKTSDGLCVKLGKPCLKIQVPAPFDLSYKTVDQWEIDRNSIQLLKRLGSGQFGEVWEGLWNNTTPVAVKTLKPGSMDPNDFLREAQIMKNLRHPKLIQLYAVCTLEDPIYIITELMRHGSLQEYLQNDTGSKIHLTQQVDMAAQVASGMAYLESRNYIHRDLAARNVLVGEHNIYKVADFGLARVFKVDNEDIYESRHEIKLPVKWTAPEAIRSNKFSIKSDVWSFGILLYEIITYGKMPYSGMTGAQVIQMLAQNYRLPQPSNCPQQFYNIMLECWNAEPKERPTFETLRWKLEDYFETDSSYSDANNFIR
Protocol: as §1

CSK = biological target: T6, CSK (Homo sapiens, UniProt P41240); conditions: read-out: percentage of control activity (POC), CSK
T6 construct: purchased Eurofins Pharma Discovery Services (KinaseProfiler; Cerep BioPrint panel)
T6 sequence (P41240 whole entry): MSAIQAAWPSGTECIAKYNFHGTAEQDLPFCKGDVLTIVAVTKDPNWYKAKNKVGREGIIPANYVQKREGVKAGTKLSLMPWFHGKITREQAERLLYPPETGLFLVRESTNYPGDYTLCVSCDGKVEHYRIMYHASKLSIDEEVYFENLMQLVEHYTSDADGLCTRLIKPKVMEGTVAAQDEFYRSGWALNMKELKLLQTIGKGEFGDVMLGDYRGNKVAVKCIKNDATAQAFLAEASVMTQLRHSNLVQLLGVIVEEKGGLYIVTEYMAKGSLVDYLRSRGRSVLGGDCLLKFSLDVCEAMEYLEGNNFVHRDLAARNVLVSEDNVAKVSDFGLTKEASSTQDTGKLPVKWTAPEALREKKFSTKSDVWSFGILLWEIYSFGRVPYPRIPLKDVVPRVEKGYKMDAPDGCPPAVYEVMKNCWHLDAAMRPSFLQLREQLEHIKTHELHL
Protocol: as §1

Flt1 = biological target: T7, Flt1 (Homo sapiens, UniProt P17948); conditions: read-out: percentage of control activity (POC), Flt1
T7 construct: purchased Eurofins Pharma Discovery Services (KinaseProfiler; Cerep BioPrint panel)
T7 sequence (P17948 27-1338): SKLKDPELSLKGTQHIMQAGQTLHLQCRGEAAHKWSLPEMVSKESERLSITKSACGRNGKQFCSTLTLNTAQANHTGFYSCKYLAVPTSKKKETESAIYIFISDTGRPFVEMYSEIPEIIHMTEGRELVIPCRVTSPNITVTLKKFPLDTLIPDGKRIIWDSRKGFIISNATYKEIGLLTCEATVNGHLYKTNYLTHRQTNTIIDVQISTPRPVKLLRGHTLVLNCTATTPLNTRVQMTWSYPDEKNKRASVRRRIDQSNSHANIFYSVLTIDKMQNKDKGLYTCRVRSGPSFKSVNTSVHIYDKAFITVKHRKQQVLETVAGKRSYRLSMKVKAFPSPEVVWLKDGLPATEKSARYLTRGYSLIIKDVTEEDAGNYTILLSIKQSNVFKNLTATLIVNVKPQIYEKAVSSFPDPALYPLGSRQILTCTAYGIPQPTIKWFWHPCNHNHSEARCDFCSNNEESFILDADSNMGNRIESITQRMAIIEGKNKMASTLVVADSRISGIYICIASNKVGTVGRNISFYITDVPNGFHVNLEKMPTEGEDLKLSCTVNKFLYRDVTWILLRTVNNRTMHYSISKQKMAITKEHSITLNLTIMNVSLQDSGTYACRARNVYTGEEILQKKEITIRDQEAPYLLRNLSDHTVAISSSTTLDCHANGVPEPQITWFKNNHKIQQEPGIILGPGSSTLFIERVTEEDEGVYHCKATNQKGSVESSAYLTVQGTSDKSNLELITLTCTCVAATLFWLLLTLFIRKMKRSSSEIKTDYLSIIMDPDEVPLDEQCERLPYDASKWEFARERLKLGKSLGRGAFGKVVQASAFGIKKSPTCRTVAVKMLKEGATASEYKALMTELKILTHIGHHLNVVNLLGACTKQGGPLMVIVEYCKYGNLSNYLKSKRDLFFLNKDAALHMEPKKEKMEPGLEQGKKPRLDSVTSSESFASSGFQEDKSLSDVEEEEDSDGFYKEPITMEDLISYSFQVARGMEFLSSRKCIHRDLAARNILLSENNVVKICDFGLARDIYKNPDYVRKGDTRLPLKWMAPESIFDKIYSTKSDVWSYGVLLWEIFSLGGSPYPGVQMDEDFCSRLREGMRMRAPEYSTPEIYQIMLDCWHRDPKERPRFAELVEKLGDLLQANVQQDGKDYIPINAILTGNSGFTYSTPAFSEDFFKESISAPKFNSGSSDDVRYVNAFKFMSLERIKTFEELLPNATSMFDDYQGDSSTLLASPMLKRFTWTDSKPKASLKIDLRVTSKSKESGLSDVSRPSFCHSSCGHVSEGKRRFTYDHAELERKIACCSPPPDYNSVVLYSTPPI
Protocol: as §1

PAK2 = biological target: T8, PAK2 (Homo sapiens, UniProt Q13177); conditions: read-out: percentage of control activity (POC), PAK2
T8 construct: purchased Eurofins Pharma Discovery Services (KinaseProfiler; Cerep BioPrint panel)
T8 sequence (Q13177 whole entry): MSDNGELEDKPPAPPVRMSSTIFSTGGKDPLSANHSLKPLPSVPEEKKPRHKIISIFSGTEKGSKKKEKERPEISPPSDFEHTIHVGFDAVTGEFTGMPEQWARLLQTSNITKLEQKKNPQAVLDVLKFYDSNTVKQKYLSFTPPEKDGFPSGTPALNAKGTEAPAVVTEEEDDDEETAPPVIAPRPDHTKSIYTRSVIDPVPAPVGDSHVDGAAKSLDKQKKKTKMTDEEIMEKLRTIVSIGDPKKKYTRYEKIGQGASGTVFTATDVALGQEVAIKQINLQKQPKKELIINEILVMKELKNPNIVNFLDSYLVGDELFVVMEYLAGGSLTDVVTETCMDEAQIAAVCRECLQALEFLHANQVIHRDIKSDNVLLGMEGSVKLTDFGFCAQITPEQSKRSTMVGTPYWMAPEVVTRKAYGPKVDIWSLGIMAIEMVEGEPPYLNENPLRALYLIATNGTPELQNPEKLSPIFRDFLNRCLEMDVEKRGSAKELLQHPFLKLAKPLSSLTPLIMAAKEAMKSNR
Protocol: as §1

FGFR3 = biological target: T9, FGFR3 (Homo sapiens, UniProt P22607); conditions: read-out: percentage of control activity (POC), FGFR3
T9 construct: purchased Eurofins Pharma Discovery Services (KinaseProfiler; Cerep BioPrint panel)
T9 sequence (P22607 23-806): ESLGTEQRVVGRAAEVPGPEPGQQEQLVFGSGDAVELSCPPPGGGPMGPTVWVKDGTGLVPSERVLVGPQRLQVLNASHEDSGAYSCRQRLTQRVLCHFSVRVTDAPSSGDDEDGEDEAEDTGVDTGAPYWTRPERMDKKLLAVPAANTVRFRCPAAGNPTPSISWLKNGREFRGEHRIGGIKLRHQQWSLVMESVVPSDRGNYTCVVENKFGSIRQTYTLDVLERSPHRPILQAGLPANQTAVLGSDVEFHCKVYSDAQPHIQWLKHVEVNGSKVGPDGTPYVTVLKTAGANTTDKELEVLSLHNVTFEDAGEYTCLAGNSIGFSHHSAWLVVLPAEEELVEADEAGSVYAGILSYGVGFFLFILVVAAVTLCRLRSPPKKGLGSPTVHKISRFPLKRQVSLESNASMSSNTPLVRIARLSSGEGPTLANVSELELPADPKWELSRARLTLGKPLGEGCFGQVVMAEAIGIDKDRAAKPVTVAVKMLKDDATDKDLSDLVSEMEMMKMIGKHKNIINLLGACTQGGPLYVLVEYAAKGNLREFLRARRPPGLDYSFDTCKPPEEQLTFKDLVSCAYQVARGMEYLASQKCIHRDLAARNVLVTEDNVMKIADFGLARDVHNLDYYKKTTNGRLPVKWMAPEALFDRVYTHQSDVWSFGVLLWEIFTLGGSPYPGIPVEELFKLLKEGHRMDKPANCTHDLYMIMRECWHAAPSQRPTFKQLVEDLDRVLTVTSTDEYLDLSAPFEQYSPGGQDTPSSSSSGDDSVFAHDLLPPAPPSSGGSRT
Protocol: as §1

Abl = biological target: T10, Abl (Homo sapiens, UniProt P00519); conditions: read-out: percentage of control activity (POC), Abl
T10 construct: purchased Eurofins Pharma Discovery Services (KinaseProfiler; Cerep BioPrint panel)
Protocol: as §1

MKK7β = biological target: T11, MKK7β (Homo sapiens, UniProt O14733); conditions: read-out: percentage of control activity (POC), MKK7β
T11 construct: purchased Eurofins Pharma Discovery Services (KinaseProfiler; Cerep BioPrint panel)
T11 sequence (O14733 1-419): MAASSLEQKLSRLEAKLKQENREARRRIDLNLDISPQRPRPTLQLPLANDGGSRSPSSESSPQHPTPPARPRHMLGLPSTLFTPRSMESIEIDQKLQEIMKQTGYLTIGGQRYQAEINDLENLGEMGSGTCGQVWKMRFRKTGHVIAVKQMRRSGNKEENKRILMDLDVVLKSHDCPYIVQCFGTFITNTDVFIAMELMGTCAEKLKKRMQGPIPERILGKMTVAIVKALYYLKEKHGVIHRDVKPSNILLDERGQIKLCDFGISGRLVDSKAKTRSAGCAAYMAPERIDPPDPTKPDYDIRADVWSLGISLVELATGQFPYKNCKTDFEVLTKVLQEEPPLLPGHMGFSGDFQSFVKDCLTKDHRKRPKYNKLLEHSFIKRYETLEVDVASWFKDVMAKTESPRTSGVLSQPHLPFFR
Protocol: as §1

EphA2 = biological target: T12, EphA2 (Homo sapiens, UniProt P29317); conditions: read-out: percentage of control activity (POC), EphA2
T12 construct: purchased Eurofins Pharma Discovery Services (KinaseProfiler; Cerep BioPrint panel)
Protocol: as §1

Row | SMILES | remaining activity at 10 µM (KDR) [%] | remaining activity at 10 µM (SAPK3) [%] | remaining activity at 10 µM (CDK6/cyclinD3) [%] | remaining activity at 10 µM (IKKβ) [%] | remaining activity at 10 µM (PTK5) [%] | remaining activity at 10 µM (CSK) [%] | remaining activity at 10 µM (Flt1) [%] | remaining activity at 10 µM (PAK2) [%] | remaining activity at 10 µM (FGFR3) [%] | remaining activity at 10 µM (Abl) [%] | remaining activity at 10 µM (MKK7β) [%] | remaining activity at 10 µM (EphA2) [%] | inhibition at 10 µM (PTK5) [%]
1 | CC(C)(C)N1CCC(c2cc(-c3ccc(F)cc3Cl)c3cc[n+]([O-])c(-c4c(Cl)cccc4Cl)c3n2)CC1 [compound 2] | 92 | 75 | 102 | 102 | 97 | 95 | 114 | 111 | 99 | 104 | 110 | 103 | 
2 | Cc1ccc(C(=O)NCC2CC2)cc1-c1ccc2c(c1)NC(=O)C21CCCC1 [compound 3] | 93 | 78 | 97 | 107 | 56 | 107 | 128 | 89 | 92 | 96 | 116 | 100 | 
3 | Cn1cc(-c2cccc(-c3nc(C(=O)NC4C5CC6CC4CC(O)(C6)C5)c(N)nc3N)c2)cn1 (stereo not shown) [compound 4] | 72 | 92 | 93 | 95 | 54 | 94 | 84 | 87 | 88 | 66 | 101 | 97 | 
4 | CS(=O)(=O)N1CCN(c2ccc(Nc3ncc(C(N)=O)c(NC4CC4)n3)cc2)CC1 [compound 5] | 6 | 64 | 23 | 8 | 31 | 74 | -3 | 24 | 8 | 2 | 7 | 57 | 
5 | COc1c(NC(=O)c2ccc(C)c(-c3nnc4c(NCC(C)(C)C)nccn34)c2)cc(C(C)(C)C)cc1NS(C)(=O)=O [compound 7, reference compound] | 82 | 67 | 100 | 127 | 4 | 88 | 80 | 96 | 97 | 50 | 112 | 63 | 96
